Source: ChEMBL document CHEMBL4665875, “Synthesis, biological evaluation and in silico modeling of novel pan-genotypic NS5A inhibitors” (Bioorg Med Chem, 2020)

Columns and labels:
[1] = Cytotoxicity against HCV genotype 1b NS5A infected human HuH7 cells assessed as reduction in cell viability measured after 72 hrs by CellTiter-Glo assay; conditions: HuH7 cells infected with HCV genotype 1b NS5A
[2] = biological target: T1, Nonstructural protein 5A (Hepatitis C virus) (UniProt Q5L478); assay: Potency index, ratio of AV-4025 IC50 to test compound IC50 for inhibition of HCV genotype 3a NS5A infected in Huh7 cells assessed as reduction in viral replication incubated 3 days and measured by bright Glo-luciferase reporter gene assay; type: cell-based; conditions: Hepatitis C virus subtype 3a; time 3.0 day
T1 sequence (whole entry): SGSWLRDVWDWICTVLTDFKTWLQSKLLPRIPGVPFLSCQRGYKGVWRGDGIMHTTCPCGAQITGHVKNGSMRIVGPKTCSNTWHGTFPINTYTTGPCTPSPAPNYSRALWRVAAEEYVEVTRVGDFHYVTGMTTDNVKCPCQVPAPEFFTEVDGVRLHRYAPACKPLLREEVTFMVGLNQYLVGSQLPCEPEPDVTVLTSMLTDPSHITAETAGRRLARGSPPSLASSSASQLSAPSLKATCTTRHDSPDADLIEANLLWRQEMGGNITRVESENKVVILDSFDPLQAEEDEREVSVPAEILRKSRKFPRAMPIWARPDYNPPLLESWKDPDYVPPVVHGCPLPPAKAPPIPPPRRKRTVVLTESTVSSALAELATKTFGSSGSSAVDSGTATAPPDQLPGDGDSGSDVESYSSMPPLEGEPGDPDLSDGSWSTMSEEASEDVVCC

SMILES	CC50 at 72 h [1] [µM]	Ratio IC50 [2]
COC(=O)N[C@H](C(=O)N1CCC[C@H]1c1ncc(-c2ccc(C#CC#Cc3cnc([C@@H]4CCCN4C(=O)[C@H](NC(=O)OC)c4ccccc4)[nH]3)c(-c3ccc(N(C)C)cc3)c2)[nH]1)C(C)C	> 10	–
COC(=O)N[C@H](C(=O)N1CCC[C@H]1c1ncc(-c2cc(C)c(C#CC#Cc3cnc([C@@H]4CCCN4C(=O)[C@H](NC(=O)OC)c4ccccc4)[nH]3)c(-c3ccccc3)c2)[nH]1)C(C)C	> 10	–
COC(=O)N[C@H](C(=O)N1CCC[C@H]1c1ncc(-c2ccc(C#CC#Cc3cnc([C@@H]4CCCN4C(=O)[C@H](NC(=O)OC)c4ccccc4)[nH]3)c(Oc3ccccc3)c2)[nH]1)C(C)C	> 10	–
COC(=O)NC(C(=O)N1CCC[C@H]1c1ncc(-c2ccc(C#CC#Cc3cnc([C@@H]4CCCN4C(=O)C(NC(=O)OC)C(C)C)[nH]3)cc2)[nH]1)c1ccccc1 (single isomer, unassigned)	> 10	6.8
COC(=O)N[C@H](C(=O)N1CCC[C@H]1c1ncc(-c2ccc(C#CC#Cc3cnc([C@@H]4CCCN4C(=O)[C@H](NC(=O)OC)c4ccccc4)[nH]3)c(N(C)c3ccccc3)c2)[nH]1)C(C)C	> 10	–
COC(=O)N[C@H](C(=O)N1CCC[C@H]1c1ncc(-c2ccc(C#CC#Cc3cnc([C@@H]4CCCN4C(=O)[C@@H](NC(=O)OC)C(C)C)[nH]3)cc2)[nH]1)c1ccccc1	> 10	–
COC(=O)N[C@H](C(=O)N1CCC[C@H]1c1ncc(-c2ccc(C#CC#Cc3cnc([C@@H]4CCCN4C(=O)[C@H](NC(=O)OC)c4ccccc4)[nH]3)c(-c3ccc(N4CCN(C)CC4)cc3)c2)[nH]1)C(C)C	> 10	–
COC(=O)N[C@H](C(=O)N1CCC[C@H]1c1ncc(C#CC#Cc2c(F)cc(-c3cnc([C@@H]4CCCN4C(=O)[C@@H](NC(=O)OC)C(C)C)[nH]3)cc2-c2ccccc2)[nH]1)C(C)C	> 10	–
COC(=O)N[C@H](C(=O)N1CCC[C@H]1c1ncc(C#CC#Cc2ccc(-c3cnc([C@@H]4CCCN4C(=O)[C@@H](NC(=O)OC)C(C)C)[nH]3)cc2)[nH]1)c1ccccc1	> 10	–
COC(=O)N[C@H](C(=O)N1CCC[C@H]1c1ncc(-c2ccc(C#CC#Cc3cnc([C@@H]4CCCN4C(=O)[C@H](NC(=O)OC)c4ccccc4)[nH]3)c(-c3ccc(C(C)(C)C)cc3)c2)[nH]1)C(C)C	> 10	–
COC(=O)N[C@H](C(=O)N1CCC[C@H]1c1ncc(C#CC#Cc2c(C)cc(-c3cnc([C@@H]4CCCN4C(=O)[C@@H](NC(=O)OC)C(C)C)[nH]3)cc2-c2ccccc2)[nH]1)C(C)C	> 10	–
COC(=O)N[C@H](C(=O)N1CCC[C@H]1c1ncc(C#CC#Cc2ccc(-c3cnc([C@@H]4CCCN4C(=O)[C@@H](NC(=O)OC)C(C)C)[nH]3)cc2-c2ccc3ccccc3c2)[nH]1)C(C)C	> 10	–
